For 10 compounds, Ki results are on record in BindingDB's records for doi:10.1021/jm970200u (Northwestern University, 1997).

Where a SMILES comes first, the peptide text is derived from it. [ ]: non-standard residue; d: D form. The star is where a group is joined. dArg(NO2) = N=C(NCCC[C@@H](N)C(=O)O)N[N+](=O)[O-]; Arg(NO2) = N=C(NCCC[C@H](N)C(=O)O)N[N+](=O)[O-]; OBn = c1ccc(CO*)cc1

A short description of the assay: Inhibition of Neuronal Nitric oxide synthase enzyme (nNOS).

As usually defined, the Ki is a dissociation constant, usually derived from enzyme kinetics or from competition with a known ligand. Read a high Ki as a looser hold on the target. For `NC(=NCCC[C@H](NC(=O)[C@@H](N)Cc1ccccc1)C(=O)OCc1ccccc1)N[N+](=O)[O-]` (H-Phe-[Arg(NO2)]-OBn), the inhibitory constant (Ki) amounted to 110 µM.

The compound `COC(=O)[C@@H](CCCN=C(N)N[N+](=O)[O-])NC(=O)[C@@H](N)Cc1ccccc1` had a Ki of 90 µM.

`NC(=NCCC[C@H](N)C(=O)N[C@@H](Cc1ccccc1)C(=O)O)N[N+](=O)[O-]`: the affinity corresponds to a Ki of 18 µM.

Take `N=C(NCCC[C@@H](NC(=O)[C@H](N)Cc1ccccc1)C(=O)O)N[N+](=O)[O-]` [(2R)-2-{[(2R)-2-amino-3-phenylpropanoyl]amino}-5-{[(Z)-imino(nitroamino)methyl]amino}pentanoic acid] (H-[dF]-[dArg(NO2)]-OH): the affinity, expressed as Ki, was 17 µM.

Regarding `COC(=O)[C@H](Cc1ccccc1)NC(=O)[C@@H](N)CCCN=C(N)N[N+](=O)[O-]`, the affinity, expressed as Ki, was 290 µM.

In turn, `NC(=NCCC[C@H](N)C(=O)N[C@@H](Cc1ccccc1)C(=O)OCc1ccccc1)N[N+](=O)[O-]` returned an inhibitory constant (Ki) of 55 µM.

In turn, `COC(=O)[C@@H](Cc1ccccc1)NC(=O)[C@@H](N)CCCN=C(N)N[N+](=O)[O-]` registered a Ki of 92 µM. Against the preceding compound, the Ki is about 1.7-fold higher.

The compound `COC(=O)[C@@H](Cc1ccccc1)NC(=O)[C@H](N)CCCNC(=N)N[N+](=O)[O-]` [D-Nitroarginine,methoxy-D-phenylalanine,with 2M of hydrochloric acid] came in with an inhibition constant (Ki) of 150 µM.

The compound `COC(=O)[C@@H](CCCN=C(N)N[N+](=O)[O-])NC(=O)[C@H](N)Cc1ccccc1` showed a Ki of 400 µM.

Regarding `COC(=O)[C@H](CCCN=C(N)N[N+](=O)[O-])NC(=O)[C@@H](N)Cc1ccccc1`, the inhibitory constant (Ki) was 370 µM.
